This note sets out measurements from patent US10336774B2, “N-azaspirocycloalkane substituted N-heteroaryl compounds and compositions for inhibiting the activity of SHP2” (NOVARTIS AG, priority 2014, dated 2019).

In general, IC50 refers to the point on the concentration scale where inhibition reaches its midpoint.

Sequence of SHP2 (Q06124 whole entry): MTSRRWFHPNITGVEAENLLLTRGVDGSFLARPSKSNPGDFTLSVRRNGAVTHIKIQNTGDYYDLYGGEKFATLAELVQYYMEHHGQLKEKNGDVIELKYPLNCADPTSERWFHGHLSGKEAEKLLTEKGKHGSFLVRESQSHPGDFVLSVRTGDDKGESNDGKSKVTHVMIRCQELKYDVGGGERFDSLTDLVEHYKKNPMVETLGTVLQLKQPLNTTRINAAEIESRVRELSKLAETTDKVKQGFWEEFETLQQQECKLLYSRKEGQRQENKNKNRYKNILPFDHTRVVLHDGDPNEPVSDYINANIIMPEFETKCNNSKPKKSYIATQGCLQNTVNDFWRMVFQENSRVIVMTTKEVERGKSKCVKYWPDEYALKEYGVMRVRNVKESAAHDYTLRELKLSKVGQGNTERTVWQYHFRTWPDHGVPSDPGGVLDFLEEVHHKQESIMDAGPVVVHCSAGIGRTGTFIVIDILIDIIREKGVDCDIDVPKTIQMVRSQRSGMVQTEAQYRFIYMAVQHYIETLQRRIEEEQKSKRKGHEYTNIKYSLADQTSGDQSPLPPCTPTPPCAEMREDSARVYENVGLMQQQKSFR

The first test concerns the target SHP2 (Homo sapiens (Human), UniProt Q06124). Briefly: SHP2 Allosteric Inhibition Assay. The class given is biochemical. Conditions: 0.5 nM SHP2 activated with 0.5 μM peptide IRS1_pY1172(dPEG8)pY1222, surrogate substrate DiFMUP, fluorescence. An excerpt: SHP2 Allosteric Inhibition Assay SHP2 is allosterically activated through binding of bis-tyrosyl-phorphorylated peptides to its Src Homology 2 (SH2) domains. The latter activation step leads to the release of the auto-inhibitory interface of SHP2, which in turn renders the SHP2 protein tyrosine phosphatase (PTP) active and available for substrate recognition and reaction catalysis. The catalytic activity of SHP2 was monitored using the surrogate substrate DiFMUP in a prompt fluorescence assay format. […] After 30-60 minutes incubation at 25° C., the surrogate substrate DiFMUP (Invitrogen, cat# D6567) was added to the reaction and incubated at 25° C. for 30 minutes. […] The inhibitor dose response curves were analyzed using normalized IC50 regression curve fitting with control based normalization.
Compound `Nc1nc(N2CCC3(CC2)COC[C@H]3N)cnc1Sc1ccnc(N)c1Cl` [Example 52] gave an IC50 of 7 nM.
`Nc1nc(N2CCC3(CC2)COC[C@@H]3N)cnc1Sc1ccnc(N)c1Cl` [Example 53] showed an IC50 of 298 nM.
Still for that read-out and setting: for `Nc1nc(N2CCC3(CC2)COC[C@H]3N)cnc1Sc1cccnc1Cl` [Example 54] the value was 10 nM.
The same measure, in the same setting: for `Nc1nc(N2CCC3(CC2)COC[C@H]3N)cnc1Sc1ccnnc1Cl` [Example 55] the value was 73 nM; for `C[C@@H]1CCC2(CCN(c3cnc(Sc4ccnc(N)c4Cl)c(N)n3)CC2)[C@@H]1N` [Example 56], 9 nM; for `Nc1nc(N2CCC3(CC2)C[C@H](O)C[C@H]3N)cnc1Sc1ccnc(Cl)c1Cl` [Example 57], 3 nM.
Still for that read-out and setting: to `Nc1nc(N2CCC3(CC2)C[C@@H](O)C[C@H]3N)cnc1Sc1ccnc(Cl)c1Cl` [Example 58] belongs 4 nM; to `CO[C@H]1C[C@@H](N)C2(CCN(c3cnc(Sc4ccnc(N)c4Cl)c(N)n3)CC2)C1` [Example 59], 10 nM.
`CO[C@H]1C[C@@H](N)C2(CCN(c3cnc(Sc4ccnc(Cl)c4Cl)c(N)n3)CC2)C1` [Example 60] had an IC50 of 4 nM.
The same measure, in the same setting: for `C[C@@H]1C[C@@H](N)C2(CCN(c3cnc(Sc4cccnc4C(F)(F)F)c(N)n3)CC2)C1` [Example 61] the value was 7 nM; for `C[C@@H]1C[C@H](N)C2(CCN(c3cnc(Sc4cccnc4C(F)(F)F)c(N)n3)CC2)C1` [Example 62], 100 nM.
On the same count and under the same terms, for `Nc1nc(N2CCC3(CC2)COC[C@H]3N)cnc1Sc1ccnc(Cl)c1Cl` [Example 63] the value was 7 nM; for `Nc1nc(N2CCC3(CC2)COC[C@H]3N)cnc1Sc1ccnc(F)c1Cl` [Example 64], 13 nM.
Still for that read-out and setting: to `Nc1nc(N2CCC3(CCC[C@H]3N)CC2)cnc1Sc1cc(F)ncc1Cl` [Example 65] belongs 310 nM.
The compound `CC(C)C(=O)O[C@@H]1C[C@@H](N)C2(CCN(c3cnc(Sc4ccnc(Cl)c4Cl)c(N)n3)CC2)C1` [Example 66] had an IC50 of 65 nM.
Same read-out and setting: to `Nc1nc(N2CCC3(CC2)CC(F)(F)C[C@H]3N)cnc1Sc1ccnc(N)c1Cl` [Example 67] belongs 10 nM.
Consider `C[C@H]1C[C@@H](N)C2(CCN(c3cnc(Sc4ccnc(N)c4Cl)c(N)n3)CC2)C1` [Example 70, (1R,3R)-8-(6-amino-5-((2-amino-3-chloropyridin-4-yl)thio)pyrazin-2-yl)-3-methyl-8-azaspiro[4.5]decan-1-amine], for which 5 nM corresponded to half-maximal inhibition (IC50).
The compound `C[C@@H]1C[C@@H](N)C2(CCN(c3cnc(Sc4ccnc(N)c4Cl)c(N)n3)CC2)C1` [Example 71, (1R,3S)-8-(6-amino-5-((2-amino-3-chloropyridin-4-yl)thio)pyrazin-2-yl)-3-methyl-8-azaspiro[4.5]decan-1-amine] had a concentration for half-maximal inhibition (IC50) of 5 nM.
The same measure, in the same setting: for `NC1=NCC2(CCN(c3cnc(Sc4cccnc4C(F)(F)F)c(N)n3)CC2)O1` [Example 72, 8-(6-amino-5-((2-(trifluoromethyl)pyridin-3-yl)thio)pyrazin-2-yl)-1-oxa-3,8-diazaspiro[4.5]dec-2-en-2-amine] the value was 193 nM.
Compound `NC1=NC2(CCN(c3cnc(Sc4ccnc(Cl)c4Cl)c(N)n3)CC2)CO1` [Example 73] registered an IC50 of 20 nM.
On the same count and under the same terms, to `NC1=NC2(CCN(c3cnc(Sc4cccnc4C(F)(F)F)c(N)n3)CC2)CO1` [Example 74] belongs 56 nM; to `CN(C)c1nccc(Sc2ncc(N3CCC4(CCC[C@H]4N)CC3)nc2N)c1Cl` [Example 75, (R)-8-(6-amino-5-((3-chloro-2-(dimethylamino)pyridin-4-yl)thio)pyrazin-2-yl)-8-azaspiro[4.5]decan-1-amine], 10 nM; to `Nc1nc(N2CCC3(CCC[C@H]3N)CC2)cnc1Sc1ccnnc1Cl` [Example 76], 78 nM.
For the compound `COc1nccc(Sc2ncc(N3CCC4(CCC[C@H]4N)CC3)nc2N)c1Cl` [Example 78], the concentration for half-maximal inhibition (IC50) worked out at 15 nM.
The same measure, in the same setting: to `Nc1nc(N2CCC3(CCC[C@H]3N)CC2)cnc1Sc1ccncc1C(F)(F)F` [Example 80] belongs 42 nM; to `Nc1nc(N2CCC3(CCC[C@H]3N)CC2)cnc1Sc1cc[nH]c(=O)c1Cl` [Example 81, (R)-4-((3-amino-5-(1-amino-8-azaspiro[4.5]decan-8-yl)pyrazin-2-yl)thio)-3-chloropyridin-2(1H)-one], 20 nM.
Same read-out and setting: to `Nc1cc(Sc2ncc(N3CCC4(CCC[C@H]4N)CC3)nc2N)c(Cl)c(Cl)n1` [Example 87] belongs 9.3 nM.
`C[C@@H]1OCC2(CCN(c3cnc(Sc4cc(N)nc(Cl)c4Cl)c(N)n3)CC2)[C@@H]1N` [Example 88] gave an IC50 of 4 nM.
Same read-out and setting: to `Nc1cc(Sc2ncc(N3CCC4(CC3)COC[C@H]4N)nc2N)c(Cl)c(Cl)n1` [Example 89] belongs 11.8 nM.
`Nc1cc(Sc2ncc(N3CCC4(CC3)C[C@H](O)C[C@H]4N)nc2N)c(Cl)c(Cl)n1` [Example 90] showed a half-maximal inhibitory concentration (IC50) of 4 nM.
`Nc1nc(N2CCC3(CC2)C[C@@H](F)C[C@H]3N)cnc1Sc1ccnc(N)c1Cl` [Example 91] had an IC50 of 8 nM.
For the compound `Nc1nc(N2CCC3(CC2)C[C@H](F)C[C@H]3N)cnc1Sc1ccnc(N)c1Cl` [Example 92], the midpoint of inhibition, the IC50, lay at 10 nM.

Staying with this test, now noted: unit given as M; TFA salt before chiral separation.
As to `CC1CCC2(CCN(c3cnc(Sc4cccnc4C(F)(F)F)c(N)n3)CC2)[C@@H]1N` (stereo partly drawn) [Example 86a/b, (1R)-8-(6-amino-5-((2-(trifluoromethyl)pyridin-3-yl)thio)pyrazin-2-yl)-2-methyl-8-azaspiro[4.5]decan-1-amine], the IC50 turned out to be 1 nM.
